This is an account of results in patent publication US20150110865A1, “CNS STIMULANT AND OPIOID RECEPTOR ANTAGONIST COMBINATION AS A NON-ADDICTIVE, NON-AVERSIVE AND SYNERGISTIC ANTI-OBESITY TREATMENT” (FLORIDA STATE UNIVERSITY RESEARCH FOUNDATION, priority 2013, published 2015).

Series [1] addresses T1, μ opioid receptor (MOPR) (Mus musculus, UniProt P42866).
T1 construct: Caudate-putamen and nucleus accumbens are identified in the frozen slices based on anatomical landmarks and samples from these two brain regions are collected; from tissue; host or cells: mouse brain: caudate-putamen and nucleus accumbens membrane preparations
The format is biochemical. On the set-up: dose or concentration left out as unconfirmed. The following applies: caudate-putamen membranes; FIG. 3.
Experimental: Activity of the μ opioid receptor (MOPR) is assayed by using [35S]GTPγS binding on membrane preparations. The same mice that are used in the conditioned place preference assay are used for these assays Immediately upon completion of the behavioral assay, the mice are sacrificed by cervical dislocation and the brain is dissected rapidly. The brain is frozen in liquid nitrogen and 1.0 mm slices of the brain were prepared in the coronal plane using a tissue-slicing matrix (Model 15003; Ted Pella, Redding, Calif.). Caudate-putamen and nucleus accumbens are identified in the frozen slices based on anatomical landmarks and samples from these two brain regions are collected using a tissue punch. The samples are homogenized using teflon pestle in Eppendorf tubes (10 strokes) in 300 μl of homogenization buffer containing 25 mMTris/pH 7.4, 5 mMEDTA and 0.1 mMPMSF and kept on ice. Homogenate is diluted to 2.5 ml using the homogenization buffer and centrifuged at −350,000 g for 30 min. After washing 3 times with 50 mM Tris-HCl/pH 7.4, the pellets are re-suspended in 50 mM Tris-HCl/pH 7.4 containing 0.32 M sucrose, passed through a 26.5 G needle 3 times, frozen in dry ice/ethanol and stored in −80° C. until use.
(§1) Nonspecific binding is defined by incubation in the presence of 10 μM GTPγS. […] Radioactivity on filters is determined by liquid scintillation counting. […]

In series [2] the test system is μ opioid receptor (MOPR). Briefly: MOPR activity by DAMGO-stimulated [35S]GTPγS binding in brain membranes of drug-treated mice after the CPP assay. The format is in vivo, mouse. The following applies: low dose MPH 0.75 mg/kg; either brain region; FIG. 4.
Experimental: Activity of the μ opioid receptor (MOPR) is assayed by using [35S]GTPγS binding on membrane preparations. The same mice that are used in the conditioned place preference assay are used for these assays Immediately upon completion of the behavioral assay, the mice are sacrificed by cervical dislocation and the brain is dissected rapidly. The brain is frozen in liquid nitrogen and 1.0 mm slices of the brain were prepared in the coronal plane using a tissue-slicing matrix (Model 15003; Ted Pella, Redding, Calif.). Caudate-putamen and nucleus accumbens are identified in the frozen slices based on anatomical landmarks and samples from these two brain regions are collected using a tissue punch. The samples are homogenized using teflon pestle in Eppendorf tubes (10 strokes) in 300 μl of homogenization buffer containing 25 mMTris/pH 7.4, 5 mMEDTA and 0.1 mMPMSF and kept on ice. Homogenate is diluted to 2.5 ml using the homogenization buffer and centrifuged at −350,000 g for 30 min. […]
as §1
Differences between two experimental groups are analyzed for statistical significance by using Student's t-test. […]
Series [3] deals with prenatal nicotine exposure mouse model of ADHD. Conditions: cited from earlier work.
For series [4] the following is noted: 0.75 mg/kg MPH administered to adult mice; cited from earlier work.
A further series relates to C57/B6 mice. In words: Conditioned place preference (CPP). The format is in vivo, mouse. The following applies: for time spent in drug-paired chamber, Test sessions compared to pre-conditioning sessions: FIG. 1; for CPP score compared to saline-treated group: FIG. 2; for time spent in drug-paired chamber, Test sessions compared to PC sessions: p>0.05, n=6; for CPP score compared to saline control group: p>0.05. From the text: C57/B6 mice are purchased from Charles River Laboratories. Only male mice are used.
A three-chamber place preference apparatus is used. The apparatus has two equally sized (16.8×12 cm) preference chambers connected by a central chamber (7.2×12 cm), and is outfitted with sliding guillotine-style doors between each chamber. Photobeams connected to a computer system can record animal location and time spent in that location. The central chamber has a gray colored smooth floor. The preference chamber is either white with a mesh floor or black with a bar floor. The CPP procedure included three phases: Pre-conditioning, conditioning and test phases.
The pre-conditioning phase is performed on day 1 (two sessions daily, AM and PM). In each pre-conditioning session, mice are initially placed in the central gray chamber for 2 min and then allowed free access to the white and black chambers for 20 min. The time spent in each chamber is recorded.
For the next phase in the assay, the conditioning phase, the non-preferred chamber (i.e. the chamber in which less time is spent) is designated as the drug-paired chamber and the preferred chamber (i.e. the chamber in which more time was spent) is designated as the vehicle-paired chamber.
The conditioning phase is carried out on each of days 2-6. There are two conditioning sessions daily, morning session between 8 and 10 AM and afternoon session between 2 and 4 PM. There is one session each for vehicle-paired (saline as vehicle) and drug-paired (MPH as drugs) conditions on each day of the conditioning phase. The mice are administered saline or drug (i.p.) in the saline- or drug-paired sessions, respectively and placed in the central gray chamber for 2 min (to isolate injection effect to the central chamber) and then confined to the vehicle-or-drug-paired chamber, respectively for 30 min. On the first day of the conditioning phase, the mouse receive saline during the morning session and the drug in the afternoon session. The next day, the order of treatments is reversed: drug in the morning session and saline in the afternoon session. These two paradigms are alternated for the remainder of the conditioning phase. This conditioning strategy is used for all the experiments except those using naltrexone.
Saline is administered on the first day and naltrexone (or naltrexone+MPH) is administered the following day. Administrations of saline and naltrexone are alternated for each of the next 9 days (total duration of conditioning is 10 days).
During the test phase, (one session on the day after the conditioning phase) the mice are placed in the central gray chamber for 2 min and then given free access to the drug- and saline-paired chambers for 20 min. The time spent in each chamber is recorded. The difference between time spent in the drug-paired chamber during the test phase and pre-conditioning phases was calculated as the CPP score. Saline and the drugs are administered intraperitoneally. All the behavioral analyses are performed during the light phase of the light-dark cycle.
Differences between two experimental groups are analyzed for statistical significance by using Student's t-test. Treatment effects on multiple groups are tested for significance by using one-way ANOVA and the differences among the groups are tested for significance by using Dunnett's multiple comparisons test.

Setting [5] is: naltrexone 5 mg/kg prior to MPH 7.5 mg/kg, FIG. 6.
[6] abbreviates: naltrexone 10 mg/kg prior to MPH 7.5 mg/kg, FIG. 6.

T1 sequence (P42866 whole entry): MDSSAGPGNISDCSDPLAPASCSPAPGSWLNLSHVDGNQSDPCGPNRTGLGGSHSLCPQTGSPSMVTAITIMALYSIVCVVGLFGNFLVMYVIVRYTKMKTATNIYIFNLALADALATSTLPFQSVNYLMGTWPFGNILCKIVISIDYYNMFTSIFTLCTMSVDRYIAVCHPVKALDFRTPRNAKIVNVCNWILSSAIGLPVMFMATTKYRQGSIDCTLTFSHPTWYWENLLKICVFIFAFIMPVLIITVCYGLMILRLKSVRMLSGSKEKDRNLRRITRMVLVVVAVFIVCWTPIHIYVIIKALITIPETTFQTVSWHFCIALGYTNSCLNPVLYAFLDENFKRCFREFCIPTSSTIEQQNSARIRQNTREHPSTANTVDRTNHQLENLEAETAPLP

On to `C[C@@H](NC(=O)[C@@H](N)Cc1ccc(O)cc1)C(=O)NCC(=O)N(C)[C@@H](Cc1ccccc1)C(=O)NCCO` [DAMGO], for which, on μ opioid receptor (MOPR) [1], the “maximal [35S]GTPγS binding” value is recorded as 1.75 fold of the basal level.

Take `COC(=O)C(c1ccccc1)C1CCCCN1` (centres unmarked) [MPH, methylphenidate]: the “MOPR activity compared to the saline group” value in the series on μ opioid receptor (MOPR) [2] was “no significant difference”. The effect on hyperactivity entry in series [3] (0.75 mg/kg methylphenidate) was “reduce hyperactivity”. Further, in series [3] (ADHD mouse model), the “time after administration at which hyperactivity started to decline” value is 2 h. For the same compound, in series [4], the “serum and brain concentrations of D-methylphenidate” value is “equivalent to the levels seen in human subjects given oral therapeutic doses of MPH”. For the same compound, the “time spent in drug-paired chamber, Test sessions compared to pre-conditioning sessions” value in the series on C57/B6 mice (high-dose MPH 7.5 mg/kg i.p., t-test p=0.005, n=6/group) is given as “significantly longer period of time in the drug-paired chamber”; in the series with C57/B6 mice (low dose MPH 0.75 mg/kg i.p., t-test p>0.05) it was “do not show significant differences”. Besides, the “time spent in drug-paired chamber, Test sessions compared to pre-conditioning (PC) sessions” value with C57/B6 mice (high-dose MPH 7.5 mg/kg plus saline, naltrexone experiment, FIG. 5) was “significantly longer period of time in the drug-paired chamber”. Moreover, the “CPP score compared to saline-treated group” value was “significant (p<0.05) effects” in the series on C57/B6 mice (high-dose MPH 7.5 mg/kg, multiple comparisons test) and “no significant difference” in the series on C57/B6 mice (low dose MPH 0.75 mg/kg). Moreover, the “CPP score compared to saline control” value in the series on C57/B6 mice (high-dose MPH 7.5 mg/kg, naltrexone experiment, p<0.01, FIG. 6) is “significantly greater than that produced by the saline control”.

With `O=C1CC[C@@]2(O)[C@H]3Cc4ccc(O)c5c4[C@@]2(CCN3CC2CC2)[C@H]1O5` [naltrexone], the “time spent in drug-paired chamber, Test sessions compared to PC sessions” value with C57/B6 mice (naltrexone 1 mg/kg alone, FIG. 5) is on record as “Neither saline alone nor naltrexone (1 or 10 mg/kg) alone produces significant changes”; in the series on C57/B6 mice (naltrexone 10 mg/kg alone, FIG. 5), “Neither saline alone nor naltrexone (1 or 10 mg/kg) alone produces significant changes”. In addition, the “CPP score compared to prior treatment with saline” value with C57/B6 mice (naltrexone 1 mg/kg prior to MPH 7.5 mg/kg, FIG. 6) is given as “significantly decrease the CPP score”; in the series on C57/B6 mice (setting [5]), “significantly decrease the CPP score”; in the series on C57/B6 mice (setting [6]) it was “significantly decrease the CPP score”. Also, the “CPP score compared to saline control group” value in the series on C57/B6 mice (setting [5]) and in the series with C57/B6 mice (setting [6]) was “not significantly different” each time. The “abuse potential of methylphenidate” value with C57/B6 mice (naltrexone 10 mg/kg administered with 7.5 mg/kg methylphenidate) is reported as “completely abolishes the abuse potential of methylphenidate”. In addition, in the series on C57/B6 mice (naltrexone 1, 5 or 10 mg/kg prior to MPH 7.5 mg/kg, FIG. 6), the “dose dependence of the decrease in the CPP score” value is reported as “dose-dependent”.
